Source: patent US10081609B2, “Compounds for inducing proliferation and differentiation of cells, and methods of use thereof” (The Broad Institute, Inc., priority 2013, dated 2018)
≈ marks a conversion by molar mass, not a printed value. Like-named read-outs stand apart in the source and are kept apart here.

What was measured:
human hepatocytes = experiment: CYP450 induction control in human hepatocytes; assay type: cell-based; settings: 250 μM
Experimental: To confirm the staining results, secreted levels of albumin and AFP via ELISA, and CYP450 activities through isoenzyme-specific probes that are either fluorescent or luminescent were measured. ELISA results verified both an increase in albumin secretion and a decrease in AFP secretion by treated iHeps (FIG. 4D bottom). CYP3A4 activity increased by 16 and 45 times upon treatment with FH1 and FPH2, respectively. […] Induction was considered as a possible explanation for these elevations in CYP450 activity. However, this was unlikely based on the following experiments. […] Since a period of at least 48 hrs separated compound treatment and the measurement of CYP450 activity, the iHeps were expected to have recovered from any general elevations in CYP450 activity.

[1] = test system: human iPS-derived hepatocyte-like cells (iHeps); experiment: In vitro maturation of iHeps: ELISA of albumin and AFP; assay type: cell-based; settings: iHeps treated for 9 days
Experimental: The in vitro maturation effects of selected compounds of the invention on human iPS-derived hepatocyte-like cells (iHeps) were evaluated. Human iPS cells were differentiated into iHeps and treated with selected compounds of the invention for 9 days. Maturity of treated iHeps was evaluated through ELISA quantification of mature (albumin) and immature (AFP) markers. Results are illustrated in FIG. 19.

[2] = Solubility in PBS with 1% DMSO; assay type: physicochemical; settings: aqueous buffer, kinetic from dmso stock
Experimental: (§1) Selected compounds of the invention were evaluated for physico-chemical properties, including solubility, microsomal stability, protein binding and plasma stability (Table 2).
(§2) Selected compounds of the invention were evaluated for physico-chemical properties, including solubility, microsomal stability, protein binding and plasma stability (Table 3).

[3] = test system: human primary hepatocytes; experiment: Expansion of compound-treated human primary hepatocytes (cell counts, Ki67 staining); assay type: cell-based; settings: for proliferation of hepatocytes: FIG. 11A
Experimental: The metabolic phenotype of the treated hepatocytes was assessed for canalicular transport. […] Gene expression profiling confirmed that there was no significant differences between FPH-treated and untreated hepatocytes (FIG. 11D).
The ability of compounds 201-212, 215, 217 and 244-258 to expand human primary hepatocytes in vitro was also tested.

Protein binding - Human = assay type: in vitro ADME
Experimental: as §1, §2

Plasma stability - Human = assay type: in vitro ADME
Experimental: as §1, §2

[4] = Microsomal stability - Human; assay type: in vitro ADME; settings: for Microsomal stability No NADPH: non-enzymatic microsomal mechanisms only; for Microsomal stability Average: enzymatic and non-enzymatic microsomal mechanisms
Experimental: as §1, §2

iHeps [5] = experiment: Cytochrome P450 activity in treated iHeps; assay type: cell-based; settings: iHeps treated for 9 days
Excerpt: iPS Cells were differentiated into iHeps, treated with selected compounds of the invention for 9 days, then assayed for CYP functions. The general CYP activity of the iHeps treated with compounds of the invention were elevated (FIG. 20A).

iHeps [6] = experiment: Differentiation and maturation of iHeps (albumin/AFP ELISA, staining, CYP3A4 activity); assay type: cell-based, human
Experimental: Undifferentiated iPS cells were cultured on Matrigel, supported by primary mouse embryonic fibroblasts. Once confluent, iPS cells were transitioned to differentiation media, with sequential addition of growth factors (Activin A, BMP-4, bFGF, HGF, and OSM) to guide differentiation, first into endoderm, then into hepatic progenitor cells and finally into iHeps. Compound treatment started on day 21 post initiation of differentiation and acted over a period of 9 days.
Consistent with the literature, untreated cultures had islands that double stain for albumin and the fetal marker AFP, with very little presence of the mature marker […].
The ability of compounds 201-212, 217 and 244-258 to affect the differentiation of iHeps was also tested.

Row | Compound | experimental range of effective concentrations, albumin (mature marker) [1] | solubility ([2]; read-out: Solubility Average) | solubility ([2]; read-out: Solubility Rep1) | solubility ([2]; read-out: Solubility Rep2) | solubility ([2]; read-out: Solubility Rep3) | proliferation of hepatocytes [3] | Protein binding Average (Protein binding - Human) | Protein binding Rep1 (Protein binding - Human) | Protein binding Rep2 (Protein binding - Human) | Plasma stability Average (Plasma stability - Human) | Microsomal stability Rep1 [4] | Microsomal stability Rep2 [4] | Microsomal stability No NADPH [4] | Microsomal stability Average [4] | experimental range of effective concentrations, CYP2A6 (iHeps [5]) | experimental range of effective concentrations, CYP3A4 (iHeps [5]) | experimental range of effective concentrations, CYP3A7 (iHeps [5]) | experimental range of effective concentrations, general CYP activity (general BFC) (iHeps [5]) | also measured
1 | O=c1cc(-c2ccccc2)oc2ccc3ccccc3c12 [BNF, β-naphthoflavone] | – | – | – | – | – | – | – | – | – | – | – | – | – | – | – | – | – | – | CYP450 activity (human hepatocytes): elevated
2 | C[C@H](CO)N1C[C@H](C)[C@H](CN(C)C(=O)Nc2ccc(F)cc2)Oc2ncc(C#Cc3ccc(F)cc3)cc2C1=O [Compound 107, 3-(4-fluorophenyl)-1-(((2R,3S)-8-((4-fluorophenyl)ethynyl)-5-((R)-1-hydroxypropan-2-yl)-3-methyl-6-oxo-3,4,5,6-tetrahydro-2H-pyrido[2,3-b][1,5]oxazocin-2-yl)methyl)-1-methylurea] | 5 to 20 µM | 41 µM (≈ 22.5 µg/mL) | 33 µM (≈ 18.1 µg/mL) | 47 µM (≈ 25.8 µg/mL) | 41 µM (≈ 22.5 µg/mL) | induced proliferation | 99.5 % bound | 99.4 % bound | 99.5 % bound | 87.1 % remaining | 52.4 % remaining | 59.3 % remaining | 94.4 % remaining | 55.8 % remaining | 10 to 26.7 µM | 6.7 to 20 µM | 10 to 13.3 µM | 13.3 µM | Ki67 staining co-localized with Hoechst and human albumin stains [3]: increased
3 | C[C@H]1CN([C@@H](C)CO)C(=O)CCCn2cc(nn2)CO[C@H]1CN(C)C(=O)C1CC1 [Compound 108, N-(((4R,5S,Z)-7-((S)-1-hydroxypropan-2-yl)-5-methyl-8-oxo-11H-3-oxa-7-aza-1(4,1)-triazolacycloundecaphane-4-yl)methyl)-N-methylcyclopropanecarboxamide] | 5 to 13.3 µM | > 100 µM | > 100 µM | > 100 µM | > 100 µM | induced proliferation | 12.0 % bound | 11.8 % bound | 12.1 % bound | 104.2 % remaining | 99.4 % remaining | 95.3 % remaining | 102.3 % remaining | 97.4 % remaining | 10 to 20 µM | 6.7 to 13.3 µM | 6.7 to 10 µM | 6.7 to 13.3 µM | hepatocyte phenotype of treated iHeps (iHeps [6]): more mature hepatocyte phenotypes; AFP secretion (ELISA) (iHeps [6]; treatment from day 21, 9 days): decreased; albumin secretion (ELISA) (iHeps [6]; treatment from day 21, 9 days): increased
